From US20080014272A1, “Compositions and Methods for Treatment of Chronic Pain Conditions” (priority 2006, published 2008)

How the values were obtained:
[1] = Global Assessment of Study Medication in human osteoarthritis subjects; type: in vivo; conditions: 400 mg bicifadine and/or 800 mg ibuprofen twice daily for seven days; 3 h post-dose on last day; scale 0-4; FIG. 4
Description: 23 adult human subjects with clinically confirmed osteoarthritis (OA) of the hip or knee were selected based on (1) a finding of OA through clinical analysis of hip or knee pain for at least six months, (2) stiffness symptoms that persisted for more than 30 minutes (4) crepitus and (5) score of >40 mm on the visual analog scale (VAS). […] (Altman R. Asch E, Bloch D, Bole G, Borenstein D, Brandt K, et al. The American College of Rheumatology criteria for the classification and reporting of osteoarthritis of the knee. Arthritis Rheum 1986; 29:1039-1049) The subjects were randomized to a sequence of 400 mg of bicifadine twice daily for seven days (B), ibuprofen 800 mg twice daily for seven days (I), placebo twice daily for seven days (P), or 400 mg bicifadine and 800 mg ibuprofen twice daily for seven days (B+I) as shown in Table 3. […]
(§1) Each patient's pain and function levels was rated just prior to administration of the first dose in each treatment period to establish a baseline and three hours after administration of the final dose of each treatment period. Subjects were evaluated according to the visual analog scale (FIG. 2), the Western Ontario and MacMaster Universities Osteoarthritis Index (WOMAC) (FIG. 3) and a global assessment score (FIG. 4).
Subjects were further evaluated for a global assessment and were asked the following question: […]

[2] = WOMAC Osteoarthritis Index in human osteoarthritis subjects; type: in vivo; conditions: 400 mg bicifadine and/or 800 mg ibuprofen twice daily for seven days; 3 h post-dose on last day; FIG. 3
Description: (§2) 23 adult human subjects with clinically confirmed osteoarthritis (OA) of the hip or knee were selected based on (1) a finding of OA through clinical analysis of hip or knee pain for at least six months, (2) stiffness symptoms that persisted for more than 30 minutes (4) crepitus and (5) score of >40 mm on the visual analog scale (VAS). […]
as §1
Subjects were also evaluated according to the Western Ontario and MacMaster Universities Osteoarthritis Index (WOMAC) and asked the following series of questions: […]

[3] = Duration of analgesic efficacy and plasma bicifadine levels in acute pain studies; type: in vivo, human; conditions: bicifadine HCl, unit doses about 200 mg, 400 mg, or 600 mg; acute dental pain and bunionectomy pain studies
Description: Duration of analgesic efficacy of bicifadine in acute dental pain studies was estimated using a “last observation carried forward” (LOCF) statistical method, and was projected to last up to 6 hours, or even up to 12 hours (see, e.g., Czobor P., et al., Stark J., Beer G., Petti S., Lippa A., Brown J., Beer B.: A Double-Blind, Placebo Controlled Randomized Study of DOV220,075 (bicifadine) SR and Codeine 60 mg in the Treatment of Post-Operative Dental Pain. Presented at the 2nd Annual Scientific Meeting Mar. 20-23, 2003 Chicago, Ill. American Pain Society Abstract Database at http://www.ampainsoc.org/abstract/2003/data/index.html. (Poster #915)); Czobor P., Stark J., Beer G., Brown J., Sunshine A., Konery S., Turpin M., Olson N., Otero A., Lippa A., Beer B.: A two center double-blind, placebo-controlled randomized study of DOV 220,075 (bicifadine) SR and Tramadol 100 mg in the treatment of post-operative dental pain. The Journal of Pain, 2004: 5(1), Supplement 1, p 59. Presented at the Joint APS and Canadian Pain Society Annual Meeting (23rd APS Annual Scientific Meeting) May 6-9, 2004, Vancouver, BC Canada. American Pain Society Abstract Database at http://www.ampainsoc.org/abstract/2004/data/index.html (Poster #801); each incorporated herein by reference). […]

[4] = acute dental pain; Stern et al. 2005; cited from earlier work
[5] = Monoiodoacetamide (MIA)-induced osteoarthritis in rats, hind paw weight distribution; type: in vivo, Male Wistar rats; conditions: oral gavage (PO), Day 14 post MIA injection, 1 and 2 hours post-administration; bicifadine 5, 10, 20, 40 or 60 mg/kg, morphine 60 mg/kg; FIG. 1
Description: Animals were fed standard rat chow with water available ad libitum.
The rats were anesthetized with 5% volume/volume (“v/v”) isoflurane gas and maintained with 2% v/v isoflurane gas. […] MIA was dissolved in physiologic saline and administered in a volume of 50 μL. The contralateral control knee was injected with 50 μL of physiologic saline. Administration of isoflurane gas was discontinued, and the rats became fully conscious about 5 minutes later.
Shifts in hind paw weight distribution from the right to the left hind paws supporting the right (arthritic) and the left (contralateral control) hind leg knee joints were utilized as an index of joint pain and as a measure of compound efficacy. An incapacitance tester (Model 2KG, Linton Instrumentation, UK) was employed for determination of hind paw weight distribution.
The acute dosing paradigm used herein relates to osteoarthritis signs such as mobility and joint function and osteoarthritis symptoms such as joint pain.

[6] = Visual analog scale (VAS) of osteoarthritis pain in human osteoarthritis subjects; type: in vivo; conditions: 400 mg bicifadine and/or 800 mg ibuprofen twice daily for seven days; baseline to 3 hours post dose on final day; FIG. 2
Description: as §2, §1
For the visual analog scale, each subject was asked the following question: “Draw a vertical line on the scale to indicate the average amount osteoarthritis pain you have in your index hip or knee in the prior 24 h period. • No Pain [______] Worst Pain You Can Imagine 100 mm The length of the line from “No Pain” to the vertical line drawn by the patient was then measured to determine the VAS measurement.

[7] = Use of rescue medication in acute dental pain clinical trial (Stern et al.); type: in vivo, human
Description: These conclusions are further substantiated by the use of rescue medication by subjects in the Stem et al. acute dental pain studies. Table I below summarizes information on the use of rescue medication for patients who took rescue medication among the various treatment groups in the clinical trial reported by Stern et al. (id.) A nonparametric analysis (Median Test) was conducted to evaluate the median latency to rescue medication.
Survival analysis (Kaplan-Meier method, 95% confidence) was performed to compare the treatment groups with regard to time-to-rescue medication. […] The analysis yielded a statistically significant difference among the treatment groups (Log-Rank test, Chi-square=26.9, df=4, P=0.0001). […] In view of the foregoing evidence, the present disclosure documenting efficacy of a reduced, bi-daily or less frequent dosing regimen of bicifadine to yield effective treatment of chronic pain are unexpected. […] It is a surprising benefit, therefore, that a dosing regimen consisting of only one or two doses of bicifadine effectively alleviates symptoms of chronic pain over an extended period. The extended period of efficacy of the novel compositions and dosage forms of the invention provide significant relief of chronic pain symptoms over a period of at least 8 hours, or at least 12 hours, often at least 18 hours, and up to 24 hours or longer.

Cc1ccc(C23CNCC2C3)cc1 (racemic) [bicifadine, (±)-1-(4-methylphenyl)-3-azabicyclo[3.1.0]hexane]
Global assessment score of study medication [1]: marginally better than treatment with either placebo or ibuprofen alone | Improvement of functioning as determined by the WOMAC osteoarthritis index [2]: no better than placebo | Period of analgesic efficacy for effectively treating acute pain [3]: up to 6 hours | Plasma bicifadine levels associated with the greatest pain relief [4]: > 1000 ng/mL | Plasma drug levels associated with significant analgesic efficacy [4]: 500 to 1000 ng/mL | Plasma drug levels not associated with significant analgesic effects [4]: ≤ 500 ng/mL | Effect on osteoarthritis-related pain (change in hind paw weight distribution) [5]: no significant effect | Reduction of OA pain as measured by the visual analog scale [6]: no different than treatment with placebo

COc1cccc(C2(O)CCCCC2CN(C)C)c1 (centres unmarked) [Tramadol]
Time-to-rescue medication vs placebo (Kaplan-Meier survival analysis, Log-Rank test) ([7]; 100-mg, Chi-square=18.7, df=1, P=0.0001): significantly less likely to use rescue medication | Median Time to Rescue Medication ([7]; single dose 100 mg): 2.45 h | Used Rescue Medication (N) No ([7]; single dose 100 mg): 24 | Used Rescue Medication (N) Yes ([7]; single dose 100 mg): 85

CC(C)Cc1ccc(C(C)C(=O)O)cc1 (centres unmarked) [ibuprofen, reference compound]
Improvement of functioning as determined by the WOMAC osteoarthritis index [2]: no better than placebo | Reduction of OA pain as measured by the visual analog scale [6]: no different than treatment with placebo
